Source: article PMC3923730 (Journal of Translational Medicine, 2014)
Marks after values point to notes of the source that are not given here.

How the values were obtained:
[1] = Pharmacokinetic based allometry to human; details: allometric scaling, body weights 50-115 kg, 95% CI
Protocol: Pharmacokinetic based allometry (natural logarithm (ln) transformation) was performed using available pharmacokinetic data (not shown) from various animal species and was used to estimate clearance (CL) and the initial volume of distribution (V1 = Dose/C0; C0 defined as the extrapolated plasma concentration at time zero) in human. Animals had received a single i.v. bolus dose of TRO40303 administered under lipid-based formulations (Intralipid® and liposomes) in rats and pigs or under cremophor EL®/ethanol/saline formulation in dogs and monkeys. The pharmacokinetic parameters were assessed from the mean (for rodents) or individual TRO40303 plasma concentration versus time profiles using a non-compartmental approach “Log Linear Method” (Kinetica™, version 4.4.1). The ln of the CL and the ln of V1 were each plotted against the ln of the animals’ body weight. Finally, using this relationship, the human CL and V1 were estimated based on the human body weight ranging from 50 to 115 kg.

[2] = Phase I trial pharmacokinetics, single i.v. ascending doses; type: in vivo, human
Protocol: A randomized, double-blind, placebo controlled study was performed to investigate the safety, tolerability and pharmacokinetics of single i.v. ascending doses of TRO40303 in healthy male and post-menopausal female subjects. The choice of the dose and flow rate escalation process is explained in the Result section. Seventy-two healthy volunteers were randomized, with 18 receiving a placebo and 54 an active liposomal formulation containing 20 mg/mL TRO40303 at final doses ranging from 0.5, 1, 2, 3.5, 6, 10 to 13 mg/kg with escalating flow rates from 0.04 mL/min to 35 mL/min. Within each group, 3 or 6 subjects received TRO40303 and 1 or 2 subjects received the same volume of placebo. The sample size was based on the number of doses and flow rates to be investigated. The 6 verum/2 placebo ratio per group is widely used in single ascending dose studies and provides adequate safety and pharmacokinetic information. The 3 verum/1 placebo ratio used in the last groups was chosen only to explore additional flow rates at previously studied doses.
Venous blood samples (5 mL) were collected for determination of TRO40303 concentrations in plasma at pre-dose, end of infusion, then 5 min, 15 min, 30 min, 1 h, 2 h, 4 h, 8 h, 12 h, 16 h, 24 h, 48 h, 72 h and 96 h post end of infusion into heparin–lithium Vacutainer tubes. The blood samples were gently inverted then centrifuged in a refrigerated centrifuge (+4°C) within 30 min after sampling at 1500 g for ca 10 min. The resulting plasma was frozen in two separate labelled polypropylene tubes at –20 ± 5°C until assaying.
For the quantifying TRO40303 levels in human plasma samples, the same method, GLP validated, was used and the analysis was performed at Bertin Pharma (Orleans, France). Analysis was carried out on 1200 Series (Agilent) and Series 200 (Perkin Elmer) systems interfaced to an API 4000 (AB Sciex) MS detector. Calculations were carried out with Analyst 1.4.1 and 1.5.1 (AB Sciex) software.

[3] = human, single i.v., liposomes, 0.5 mg/kg, n = 4
[4] = human, single i.v., liposomes, 0.5 mg/kg, n = 6
[5] = human, single i.v., liposomes, 1 mg/kg, n = 6
[6] = human, single i.v., liposomes, 2 mg/kg, n = 6
[7] = human, single i.v., liposomes, 3.5 mg/kg, n = 9
[8] = human, single i.v., liposomes, 6 mg/kg, n = 11
[9] = human, single i.v., liposomes, 6 mg/kg, n = 12
[10] = human, single i.v., liposomes, 10 mg/kg, n = 9
[11] = human, single i.v., liposomes, 13 mg/kg, n = 6
[12] = human, single i.v., liposomes, over all doses
[13] = liposomes in human, IL30 in rats

CC(C)CCC[C@@H](C)[C@H]1CC[C@H]2[C@@H]3CC/C(=N\O)[C@](C)(CCCO)[C@H]3CC[C@]12C [TRO40303, 3,5-seco-4-nor-cholestan-5-one oxime-3-ol]
predicted human CL [1]: 0.883 to 3.97 mL/min/kg
predicted human V1 [1]: 0.089 to 0.741 L/kg
dose proportionality of Cmax and AUC(0-∞) ([2]; human, from 0.5 to 6 mg/kg): linear
hyper-proportionality of Cmax and AUC(0-∞) ([2]; human, from 6 to 13 mg/kg): ~ 1.5 fold
AUC(0-∞) Mean [2, 3]: 15.5* μg.h/mL
AUC(0-∞) Min-max [2, 3]: 9130 to 20900 ng·h/mL
C5min Min-max [2, 4]: 1.59 to 3.92 µg/mL
CL Mean [2, 4]: 0.598 mL/min/kg
CL Min-max [2, 4]: 0.399 to 0.912 mL/min/kg
Cmax Mean [2, 4]: 3320 ng/mL
Cmax Min-max [2, 4]: 2310 to 4850 ng/mL
Terminal t1/2 Mean [2, 4]: 29.5 h
Terminal t1/2 Min-max [2, 4]: 27.0 to 31.5 h
Vz Mean [2, 4]: 1.54 L/kg
Vz Min-max [2, 4]: 0.00103 to 0.00249 L/kg
C5min Mean ([2]; human, single i.v., liposomes, 0.5 mg/kg, n = 6, 5 min post end of infusion): 2.58 µg/mL
AUC(0-∞) Mean [2, 5]: 34.5 µg·h/mL
AUC(0-∞) Min-max [2, 5]: 21000 to 43000 ng·h/mL
C5min Min-max [2, 5]: 5.98 to 12.5 µg/mL
CL Mean [2, 5]: 0.509 mL/min/kg
CL Min-max [2, 5]: 0.388 to 0.792 mL/min/kg
Cmax Mean [2, 5]: 10300 ng/mL
Cmax Min-max [2, 5]: 6060 to 14100 ng/mL
Terminal t1/2 Mean [2, 5]: 25.1 h
Terminal t1/2 Min-max [2, 5]: 22.9 to 26.8 h
Vz Mean [2, 5]: 1.11 L/kg
Vz Min-max [2, 5]: 0.000899 to 0.00177 L/kg
C5min Mean ([2]; human, single i.v., liposomes, 1 mg/kg, n = 6, 5 min post end of infusion): 9.26 µg/mL
C5min Min-max ([2]; human, single i.v., liposomes, 2 mg/kg, n = 5): 16.7 to 26.8 µg/mL
C5min Mean ([2]; human, single i.v., liposomes, 2 mg/kg, n = 5, 5 min post end of infusion): 23.6** μg/mL
AUC(0-∞) Mean [2, 6]: 68.6 µg·h/mL
AUC(0-∞) Min-max [2, 6]: 50700 to 81500 ng·h/mL
CL Mean [2, 6]: 0.499 mL/min/kg
CL Min-max [2, 6]: 0.409 to 0.657 mL/min/kg
Cmax Mean [2, 6]: 23100 ng/mL
Cmax Min-max [2, 6]: 16000 to 31100 ng/mL
Terminal t1/2 Mean [2, 6]: 26.4 h
Terminal t1/2 Min-max [2, 6]: 24.3 to 28.7 h
Vz Mean [2, 6]: 1.14 L/kg
Vz Min-max [2, 6]: 0.00091 to 0.00152 L/kg
AUC(0-∞) Mean [2, 7]: 109 µg·h/mL
AUC(0-∞) Min-max [2, 7]: 81000 to 163000 ng·h/mL
C5min Min-max [2, 7]: 37.1 to 68.7 µg/mL
CL Mean [2, 7]: 0.560 mL/min/kg
CL Min-max [2, 7]: 0.357 to 0.721 mL/min/kg
Cmax Mean [2, 7]: 51700 ng/mL
Cmax Min-max [2, 7]: 37700 to 68700 ng/mL
Terminal t1/2 Mean [2, 7]: 25.1 h
Terminal t1/2 Min-max [2, 7]: 23.1 to 27.7 h
Vz Mean [2, 7]: 1.22 L/kg
Vz Min-max [2, 7]: 0.000723 to 0.00152 L/kg
C5min Mean ([2]; human, single i.v., liposomes, 3.5 mg/kg, n = 9, 5 min post end of infusion): 50.2 µg/mL
AUC(0-∞) Mean [2, 8]: 229*** μg.h/mL
AUC(0-∞) Min-max [2, 8]: 147000 to 307000 ng·h/mL
C5min Min-max [2, 9]: 51.6 to 266 µg/mL
CL Mean [2, 9]: 0.460 mL/min/kg
CL Min-max [2, 9]: 0.326 to 0.680 mL/min/kg
Cmax Mean [2, 9]: 118000 ng/mL
Cmax Min-max [2, 9]: 59500 to 266000 ng/mL
Terminal t1/2 Mean [2, 9]: 24.4 h
Terminal t1/2 Min-max [2, 9]: 21.2 to 30.0 h
Vz Mean [2, 9]: 0.964 L/kg
Vz Min-max [2, 9]: 0.000611 to 0.00134 L/kg
C5min Mean ([2]; human, single i.v., liposomes, 6 mg/kg, n = 12, 5 min post end of infusion): 112 µg/mL
AUC(0-∞) Mean [2, 10]: 408 µg·h/mL
AUC(0-∞) Min-max [2, 10]: 303000 to 501000 ng·h/mL
C5min Min-max [2, 10]: 120 to 279 µg/mL
CL Mean [2, 10]: 0.422 mL/min/kg
CL Min-max [2, 10]: 0.332 to 0.549 mL/min/kg
Cmax Mean [2, 10]: 194000 ng/mL
Cmax Min-max [2, 10]: 130000 to 279000 ng/mL
Terminal t1/2 Mean [2, 10]: 25.3 h
Terminal t1/2 Min-max [2, 10]: 19.3 to 30.2 h
Vz Mean [2, 10]: 0.929 L/kg
Vz Min-max [2, 10]: 0.000624 to 0.00144 L/kg
C5min Mean ([2]; human, single i.v., liposomes, 10 mg/kg, n = 9, 5 min post end of infusion): 193 µg/mL
AUC(0-∞) Mean [2, 11]: 651 µg·h/mL
AUC(0-∞) Min-max [2, 11]: 468000 to 814000 ng·h/mL
C5min Min-max [2, 11]: 148 to 371 µg/mL
CL Mean [2, 11]: 0.347 mL/min/kg
CL Min-max [2, 11]: 0.266 to 0.463 mL/min/kg
Cmax Mean [2, 11]: 259000 ng/mL
Cmax Min-max [2, 11]: 167000 to 371000 ng/mL
Terminal t1/2 Mean [2, 11]: 24.4 h
Terminal t1/2 Min-max [2, 11]: 20.1 to 28.6 h
Vz Mean [2, 11]: 0.723 L/kg
Vz Min-max [2, 11]: 0.000599 to 0.000989 L/kg
C5min Mean ([2]; human, single i.v., liposomes, 13 mg/kg, n = 6, 5 min post end of infusion): 248 µg/mL
Vz [2, 12]: 1.1 L/kg
mean penultimate thalf (when at least 80% of drug was eliminated) [2, 12]: 4 h
mean terminal thalf [2, 12]: 25 h
AUC(0-∞) in humans compared to rats for the same dose [2, 13]: ~ 7 fold
C5min in humans compared to rats for the same dose [2, 13]: ~ 2 fold
